Patent US20240245634A1, “PCNA INHIBITORS AND EGFR INHIBITORS FOR CANCER TREATMENT” (City of Hope, priority 2021, published 2024)
Entries after “also recorded” stand apart in the source; their conditions may differ.

Legend:
EGFR = molecular target: T1, EGFR (Homo sapiens, UniProt P00533); assay: Immunofluorescence imaging of EGFR in MDA-MB-468 cells; type: cell-based; settings: MDA-MB-468, serum starved, 30 minutes drug, then 15 minutes EGF
T1 construct: endogenous in cells; host or cells: MDA-MB-468
T1 sequence (P00533 25-1210): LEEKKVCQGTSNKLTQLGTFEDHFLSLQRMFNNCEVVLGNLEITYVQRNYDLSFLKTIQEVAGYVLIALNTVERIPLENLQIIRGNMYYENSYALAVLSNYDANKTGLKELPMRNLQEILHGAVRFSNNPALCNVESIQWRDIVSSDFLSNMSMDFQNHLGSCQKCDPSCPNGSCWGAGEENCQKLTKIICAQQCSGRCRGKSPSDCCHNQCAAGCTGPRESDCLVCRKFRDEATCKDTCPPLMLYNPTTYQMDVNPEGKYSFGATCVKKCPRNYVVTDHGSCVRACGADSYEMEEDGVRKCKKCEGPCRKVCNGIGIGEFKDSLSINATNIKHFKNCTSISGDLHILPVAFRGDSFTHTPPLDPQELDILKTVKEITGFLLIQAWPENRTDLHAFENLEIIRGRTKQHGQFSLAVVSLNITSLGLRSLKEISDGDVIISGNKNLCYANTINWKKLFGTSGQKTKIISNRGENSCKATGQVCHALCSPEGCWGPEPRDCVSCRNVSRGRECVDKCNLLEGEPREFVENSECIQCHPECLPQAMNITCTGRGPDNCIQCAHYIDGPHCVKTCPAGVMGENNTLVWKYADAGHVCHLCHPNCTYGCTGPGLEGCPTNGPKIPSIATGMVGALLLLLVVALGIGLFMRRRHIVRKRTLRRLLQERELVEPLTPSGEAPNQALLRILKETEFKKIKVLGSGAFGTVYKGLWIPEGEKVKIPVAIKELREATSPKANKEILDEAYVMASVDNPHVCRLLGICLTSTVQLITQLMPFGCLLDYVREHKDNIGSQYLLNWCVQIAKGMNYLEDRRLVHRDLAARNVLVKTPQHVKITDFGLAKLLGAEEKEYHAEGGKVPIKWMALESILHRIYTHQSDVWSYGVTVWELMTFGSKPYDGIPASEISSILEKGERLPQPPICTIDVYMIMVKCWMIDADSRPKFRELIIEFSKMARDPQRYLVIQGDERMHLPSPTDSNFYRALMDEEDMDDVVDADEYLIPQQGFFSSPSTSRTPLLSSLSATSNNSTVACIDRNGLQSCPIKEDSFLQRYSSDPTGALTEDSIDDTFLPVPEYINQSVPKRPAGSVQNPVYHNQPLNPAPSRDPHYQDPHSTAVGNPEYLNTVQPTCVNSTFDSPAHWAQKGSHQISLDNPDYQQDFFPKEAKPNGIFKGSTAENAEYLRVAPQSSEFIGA
Procedure: (§1) Serum starved cells were treated for 30 minutes with DMSO, AOH1996, Osi, or AOH1996 and Osi followed by 15 minutes of EGF stimulation.

PCNA = molecular target: T2, PCNA (Homo sapiens, UniProt P12004); assay: Immunofluorescence imaging of PCNA in MDA-MB-468 cells; type: cell-based; settings: MDA-MB-468, serum starved, 30 minutes drug, then 15 minutes EGF
T2 construct: endogenous in cells; host or cells: MDA-MB-468
T2 sequence (P12004 whole entry): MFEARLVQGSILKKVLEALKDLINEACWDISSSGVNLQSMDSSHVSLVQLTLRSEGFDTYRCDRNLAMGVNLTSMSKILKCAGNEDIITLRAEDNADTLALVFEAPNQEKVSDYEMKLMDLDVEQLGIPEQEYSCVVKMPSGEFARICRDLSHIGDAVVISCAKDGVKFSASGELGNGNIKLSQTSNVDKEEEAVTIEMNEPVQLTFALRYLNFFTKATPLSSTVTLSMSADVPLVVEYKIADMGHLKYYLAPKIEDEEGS
Procedure: as §1

NCI60 cell line panel = assay: Growth inhibition on the NCI60 cell line panel (NCI Developmental Therapeutics Program); type: cell-based
Source text: (§2) Studies that explored acquisition of resistance to Osi have identified many genomic alterations that contribute to resistance. These alterations are present in some of the cell lines in the NCI60 cell line panel. The growth inhibitory effects of AOH1996 on the NCI60 panel has been measured through services offered by the NCI's Development Therapeutics Program.

CRC cell lines = assay: IC50 on colorectal cancer cell lines of the NCI60 panel; type: cell-based; settings: IC50 determined by the NCI Developmental Therapeutics Program
Procedure: FIGS. 7A-7B show EGFR targeted antibodies used in the treatment of colorectal cancer (CRC). […] CRC with KRAS and BRAF activating mutations are often difficult to treat but cell lines with mutant KRAS and BRAF are responsive to AOH1996. FIG. 7A: IC50 of CRC cell lines relative to the rest of the NCI60 cell lines. FIG. 7B: AOH1996 IC50 on CRC cell lines classified by presence and type of Ras-Raf-Mek-Erk pathway mutation. IC50s for the NCI60 cell lines was determined by the NCI Developmental Therapeutics Program. Mutation status of CRC cell lines was found in the Cellosaurus database.

[1] = tested on: cell lines (14837, 14838) engineered to express oncogenic KRAS; assay: Dose response assay on cell lines with doxycycline-inducible mutant KRAS; type: cell-based; settings: with doxycycline (KRAS expressed) versus without
Procedure: Some of those alterations are present in the NCI60 cell line and represented in the chart. Each circle represent cell lines with the resistance conferring genomic alteration listed on the x-axis. […] FIG. 5F: two cell lines (14837, 14838) engineered to express oncogenic KRAS in the presence of doxycycline (Dox) were treated with escalating doses of AOH1996 in a dose response assay.
as §2

tumors = assay: In vivo tumor suppression and tolerability

| SMILES | EGFR localization and signal (EGFR) | PCNA localization (PCNA) | effect of genomic alterations conferring resistance to osimertinib on sensitivity to AOH1996 (NCI60 cell line panel; NCI60 cell lines carrying the alterations) | sensitivity of BRAF and KRAS mutant cell lines to AOH1996 (NCI60 cell line panel; NCI60 cell lines with BRAF V600E and activating KRAS mutations) | response of CRC cell lines with mutant KRAS and BRAF (CRC cell lines) | sensitivity of CRC cell lines relative to the rest of the NCI60 cell lines (CRC cell lines) | sensitivity with mutant KRAS expressed versus expression suppressed [1] | dose with no discernable side effects (tumors) | route of administration (tumors) | effect on tumors in vivo (tumors; oral) |
| --- | --- | --- | --- | --- | --- | --- | --- | --- | --- | --- |
| COc1cccc(Oc2ccccc2NC(=O)CNC(=O)c2cccc3ccccc23)c1 [AOH1996] | accumulated EGFR at the cell membrane; also recorded: EGFR was localized to the cell membrane | lost punctate staining of PCNA in the nucleus; also recorded: Nuclear PCNA foci were absent | did not confer resistance | noticeable skew in distribution towards AOH1996 sensitivity; also recorded: greater sensitivity | responsive | particularly sensitive | sensitive to AOH1996 when mutant KRAS is expressed but not when expression was suppressed; also recorded: more sensitive | more than 6 times its effective dose | orally administrable | effectively kills and suppresses tumors |
| C=CC(=O)Nc1cc(Nc2nccc(-c3cn(C)c4ccccc34)n2)c(OC)cc1N(C)CCN(C)C [osimertinib, reference compound] |  | less apparent |  |  |  |  |  |  |  |  |
